Assay results: ChEMBL document CHEMBL1201862, “PubChem BioAssay data set” (2004)
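Dose response: 5 concentrations. Exposure: 48 h. Format: 96-well plates. Endpoint: linear interpolation; highest concentration if not reached. At the GI50, growth is halved.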 Activity calls are given as the source filed them. Rule as the data show it: active = GI50 up to about 1.1 µM and inactive = higher.

What was measured:
Assay in all cases: inhibition of tumour cell growth, NCI panel, 48 h
BT-549 = tested on: BT-549
CAKI-1 = tested on: CAKI-1
CCRF-CEM = tested on: CCRF-CEM
EKVX = tested on: EKVX
HCT-116 = tested on: HCT-116
HCT-15 = tested on: HCT-15
Hs-578T = tested on: Hs-578T
KM12 = tested on: KM12
MDA-MB-435 = tested on: MDA-MB-435
MOLT-4 = tested on: MOLT-4
Malme-3M = tested on: Malme-3M
NCI-H460 = tested on: NCI-H460
NCI-H522 = tested on: NCI-H522
OVCAR-4 = tested on: OVCAR-4
SF-295 = tested on: SF-295
SN12C = tested on: SN12C
T47D = tested on: T47D
UO-31 = tested on: UO-31
DU-145 = tested on: DU-145
A498 = tested on: A498

Row | SMILES | GI50 (BT-549) | GI50 (CAKI-1) | GI50 (CCRF-CEM) | GI50 (EKVX) | GI50 (HCT-116) | GI50 (HCT-15) | GI50 (Hs-578T) | GI50 (KM12) | GI50 (MDA-MB-435) | GI50 (MOLT-4) | GI50 (Malme-3M) | GI50 (NCI-H460) | GI50 (NCI-H522) | GI50 (OVCAR-4) | GI50 (SF-295) | GI50 (SN12C) | GI50 (T47D) | GI50 (UO-31) | GI50 (DU-145) | GI50 (A498)
1 | O=C(CSc1nc2nncc-2c(O)[nH]1)c1ccc(Cl)cc1 | > 100 µM (inactive) | > 100 µM (inactive) | > 100 µM (inactive) | 66.5 µM (inactive) | > 100 µM (inactive) | 93.8 µM | > 100 µM (inactive) | > 100 µM (inactive) | > 100 µM (inactive) | > 100 µM (inactive) | > 100 µM (inactive) | > 100 µM (inactive) | > 100 µM (inactive) | > 100 µM (inactive) | > 100 µM (inactive) | > 100 µM (inactive) | > 100 µM (inactive) | > 100 µM (inactive) | – | –
2 | c1ccc2c(c1)SCCCSCCCS2 | > 100 µM (inactive) | – | > 100 µM (inactive) | > 100 µM (inactive) | 63.4 µM (inactive) | > 100 µM | – | > 100 µM (inactive) | > 100 µM (inactive) | 67.6 µM (inactive) | – | > 100 µM (inactive) | > 100 µM (inactive) | 76 µM (inactive) | > 100 µM (inactive) | > 100 µM (inactive) | > 100 µM (inactive) | – | > 100 µM (inactive) | –
3 | CC(=O)OC12c3ccccc3C(c3ccccc31)C1C(=O)N(N=C(C)C)C(=O)C12 (centres undefined) | > 100 µM (inactive) | > 100 µM (inactive) | > 100 µM (inactive) | > 100 µM (inactive) | > 100 µM (inactive) | > 100 µM | > 100 µM (inactive) | > 100 µM (inactive) | – | > 100 µM (inactive) | 63.2 µM (inactive) | – | – | > 100 µM (inactive) | > 100 µM (inactive) | > 100 µM (inactive) | 70.8 µM (inactive) | > 100 µM (inactive) | > 100 µM (inactive) | –
4 | CCOc1ccc(/C=C2\NC(=S)N(/C=C3\C(=O)Oc4ccccc4C3=O)C2=O)cc1 | 23.6 µM (inactive) | 23.9 µM (inactive) | 15.1 µM (inactive) | 24.7 µM (inactive) | 19.5 µM (inactive) | 20.7 µM | 23.4 µM (inactive) | 20.7 µM (inactive) | 28.8 µM (inactive) | 24.3 µM (inactive) | – | 21.4 µM (inactive) | 20.7 µM (inactive) | 28.1 µM (inactive) | 20.4 µM (inactive) | 19.7 µM (inactive) | – | 24.1 µM (inactive) | 22.4 µM (inactive) | –
5 | CC1(C)O[C@H]2[C@@H]3N=C(c4ccccc4)O[C@@H]3C=C[C@H]2O1 | > 100 µM (inactive) | > 100 µM (inactive) | > 100 µM (inactive) | 59.7 µM (inactive) | > 100 µM (inactive) | > 100 µM | – | > 100 µM (inactive) | > 100 µM (inactive) | > 100 µM (inactive) | – | – | 4.01 µM (inactive) | > 100 µM (inactive) | > 100 µM (inactive) | > 100 µM (inactive) | > 100 µM (inactive) | > 100 µM (inactive) | > 100 µM (inactive) | > 100 µM (inactive)
6 | NC12CC3C4CC5(N)CC3C(C1)C(C5)C4C2 | > 100 µM (inactive) | > 100 µM (inactive) | > 100 µM (inactive) | > 100 µM (inactive) | > 100 µM (inactive) | > 100 µM | > 100 µM (inactive) | > 100 µM (inactive) | > 100 µM (inactive) | > 100 µM (inactive) | > 100 µM (inactive) | > 100 µM (inactive) | > 100 µM (inactive) | > 100 µM (inactive) | > 100 µM (inactive) | > 100 µM (inactive) | > 100 µM (inactive) | > 100 µM (inactive) | – | > 100 µM (inactive)
7 | CCCCc1c2c(nc3c1CCCC3O)CCCC2 (centres undefined) | > 100 µM (inactive) | > 100 µM (inactive) | 72.6 µM (inactive) | 73.6 µM (inactive) | > 100 µM (inactive) | > 100 µM | > 100 µM (inactive) | > 100 µM (inactive) | > 100 µM (inactive) | 71 µM (inactive) | > 100 µM (inactive) | > 100 µM (inactive) | > 100 µM (inactive) | > 100 µM (inactive) | > 100 µM (inactive) | > 100 µM (inactive) | – | > 100 µM (inactive) | > 100 µM (inactive) | > 100 µM (inactive)
8 | Cc1ccc(N2C(=O)C=C(C3=C(O)C(=O)N(c4ccc(C)cc4)C3=O)C2=O)cc1 | > 100 µM (inactive) | – | > 100 µM (inactive) | > 100 µM (inactive) | > 100 µM (inactive) | > 100 µM | – | – | > 100 µM (inactive) | > 100 µM (inactive) | > 100 µM (inactive) | > 100 µM (inactive) | – | > 100 µM (inactive) | > 100 µM (inactive) | > 100 µM (inactive) | > 100 µM (inactive) | > 100 µM (inactive) | > 100 µM (inactive) | > 100 µM (inactive)
9 | O=C(NC1=C(Cl)C(=O)c2ccccc2C1=O)c1ccc(F)cc1 | 3.46 µM (inactive) | – | 0.802 µM (active) | 11.8 µM (inactive) | 0.455 µM (active) | 0.535 µM | 8.91 µM (inactive) | 3.08 µM (inactive) | 4.45 µM (inactive) | 2.24 µM (inactive) | 1.52 µM (inactive) | 2.87 µM (inactive) | 0.456 µM (active) | 6.67 µM (inactive) | 4.06 µM (inactive) | 3.41 µM (inactive) | 1.9 µM (inactive) | – | 4.68 µM (inactive) | –
10 | CC(C)(C)c1cc2c(O)c(c1)Cc1cc(C(C)(C)C)cc(c1O)Cc1cc(C(C)(C)C)cc(c1O)Cc1cc(C(C)(C)C)cc(c1O)Cc1cc(C(C)(C)C)cc(c1O)Cc1cc(C(C)(C)C)cc(c1O)Cc1cc(C(C)(C)C)cc(c1O)Cc1cc(C(C)(C)C)cc(c1O)C2 | – | > 50 µM (inactive) | > 50 µM (inactive) | > 50 µM (inactive) | > 50 µM (inactive) | > 50 µM | > 50 µM (inactive) | > 50 µM (inactive) | > 50 µM (inactive) | > 50 µM (inactive) | > 50 µM (inactive) | > 50 µM (inactive) | > 50 µM (inactive) | > 50 µM (inactive) | > 50 µM (inactive) | > 50 µM (inactive) | > 50 µM (inactive) | > 50 µM (inactive) | > 50 µM (inactive) | > 50 µM (inactive)
11 | Cc1cc(OC(=O)NCn2cc(-c3ccccc3)nn2)ccc1Cl | 68.9 µM (inactive) | 83.2 µM (inactive) | 72.8 µM (inactive) | > 100 µM (inactive) | 85.7 µM (inactive) | 97.9 µM | – | > 100 µM (inactive) | – | 28.3 µM (inactive) | 88.1 µM (inactive) | 67.6 µM (inactive) | 54.2 µM (inactive) | 78.7 µM (inactive) | > 100 µM (inactive) | > 100 µM (inactive) | – | – | 68.7 µM (inactive) | –
12 | O=C(C/N=C(\CN(c1ccccc1)c1ccccc1)Oc1c([N+](=O)[O-])cc([N+](=O)[O-])cc1[N+](=O)[O-])N1CCNCC1 | > 100 µM (inactive) | – | > 100 µM (inactive) | > 100 µM (inactive) | > 100 µM (inactive) | > 100 µM | 25.4 µM (inactive) | > 100 µM (inactive) | > 100 µM (inactive) | > 100 µM (inactive) | > 100 µM (inactive) | > 100 µM (inactive) | > 100 µM (inactive) | > 100 µM (inactive) | > 100 µM (inactive) | > 100 µM (inactive) | > 100 µM (inactive) | – | > 100 µM (inactive) | –
13 | Cc1ccc(N2CCc3c(C)c(C#N)c4nc5ccccc5n4c32)cc1 | > 100 µM (inactive) | 70.6 µM (inactive) | > 100 µM (inactive) | – | > 100 µM (inactive) | > 100 µM | 16 µM (inactive) | – | 6.27 µM (inactive) | – | > 100 µM (inactive) | 99.1 µM (inactive) | 9.04 µM (inactive) | > 100 µM (inactive) | 41.6 µM (inactive) | > 100 µM (inactive) | – | > 100 µM (inactive) | > 100 µM (inactive) | –
14 | CC[C@@H]1CC[C@@H]2[C@H](CC[C@]3(C)[C@@H](OS(=O)(=O)c4ccc(C)cc4)CC[C@@H]23)[C@H]1COS(=O)(=O)c1ccc(C)cc1 | > 100 µM (inactive) | – | > 100 µM (inactive) | > 100 µM (inactive) | > 100 µM (inactive) | > 100 µM | > 100 µM (inactive) | – | > 100 µM (inactive) | > 100 µM (inactive) | > 100 µM (inactive) | > 100 µM (inactive) | – | > 100 µM (inactive) | > 100 µM (inactive) | > 100 µM (inactive) | – | 51.4 µM (inactive) | > 100 µM (inactive) | > 100 µM (inactive)
15 | COc1cc(OC)c2c3c(OC)cc(OC)c4c(=O)c(O)c(C[C@@H](C)O)c(c5c(C[C@@H](C)O)c(O)c(=O)c1c25)c43 | 18.7 µM (inactive) | 18.8 µM (inactive) | – | 32.4 µM (inactive) | 16 µM (inactive) | 19.2 µM | – | 23.2 µM (inactive) | 16.6 µM (inactive) | 15.3 µM (inactive) | – | 27.2 µM (inactive) | – | 30.5 µM (inactive) | 40.2 µM (inactive) | 24.5 µM (inactive) | 16.6 µM (inactive) | 30.7 µM (inactive) | 30.8 µM (inactive) | 28.8 µM (inactive)
16 | Cn1c(=O)cc(NNc2ccc(Br)cc2)[nH]c1=O | 16.9 µM (inactive) | – | 0.431 µM (active) | 16.5 µM (inactive) | 10.4 µM (inactive) | 6.71 µM | 3.88 µM (inactive) | 2.24 µM (inactive) | 12.4 µM (inactive) | 0.558 µM (active) | 16.6 µM (inactive) | 4.26 µM (inactive) | – | 16 µM (inactive) | 13.4 µM (inactive) | 10.7 µM (inactive) | – | 16.4 µM (inactive) | 6.55 µM (inactive) | 44.3 µM (inactive)
